According to US5514694A, “Peptidyl ketoamides” (Georgia Tech Research Corp, priority 1993, dated 1996):
Where two headings read alike, the source gives them in different places.

How the values were obtained:
Type in all cases: biochemical
[1] = molecular target: calpain II from rabbit; experiment: Calpain II inhibition, Suc-Leu-Tyr-AMC hydrolysis (KI); details: read-out: KI Cal II
Experimental: (§1) HEPES, heparin, and A23187 were obtained from Calbiochem. Suc-Leu-Tyr-AMC and chromogenic substrates were obtained from Sigma. Calpain I was purified from human erythrocytes according to the method of Kitahara (Kitahara et al., J. Biochem. 95, 1759-1766) omitting the Blue-Sepharose step. Calpain II from rabbit muscle and cathepsin B were purchased from Sigma. Papain was purchased from Calbiochem.
(§2) Peptide α-ketoamides were assayed as reversible enzyme inhibitors. Various concentrations of inhibitors in Me2 SO were added to the assay mixture which contained buffer and substrate. The reaction was started by the addition of the enzyme and the hydrolysis rates were followed spectrophotometrically or fluorimetrically.
(§3) Calpain I from human erythrocytes and calpain II from rabbit were assayed using Suc-Leu-Tyr-AMC Sasaki et al., J. Biol. Chem. 259, 12489-12494 (1984); incorporated herein by reference!, and the AMC (7-amino-4-methylcoumarin) release was followed fluorimetrically (excitation at 380 nm, and emmision at 460 nm). Calpains were assayed in 25 mM Tris pH=8.0, 10 mM CaC12. Fluorescence was followed using a Gilson FL-1A fluorometer or a Perkin-Elmer 203 Fluorescence spectrometer. Cathepsin B was assayed in 20 mM sodium acetate pH=5.2, 0.5 mM dithiothreitol using Bz-Phe-Val-Arg-p-nitroanilide as substrate. Alternately, cathepsin B was assayed with Z-Arg-Arg-AFC Barrett and Kirschke, Methods Enzymol. 80, 535-561 (1981); incorporated herein by reference!, and the AFC (7-amino-4-trifluoromethylcoumarin) release was followed fluorimetrically (excitation at 400 nm and emmision at 505 nm). Papain was assayed in 100 mM KPO4, 1 mM EDTA, 2.5 mM cysteine pH=6.0 using Bz-Arg-AMC or Bz-Arg-NA Kanaoka et al., Chem. Pharm. Bull. 25, 3126-3128 (1977); incorporated herein by reference! as a substrate. The AMC (7-amino-4-methylcoumarin) release was followed fluorimetrically (excitation at 380 nm, and emmision at 460 nm). Enzymatic hydrolysis rates were measured at various substrate and inhibitor concentrations, and KI values were determined by either Lineweaver-Burk plots or Dixon plots.
(§4) A 0.1M Hepes, 0.5M NaCl, pH 7.5 buffer was utilized for human leukocyte elastase (HLE), porcine pancreatic elastase (PPE), chymotrypsin and cathepsin G. A 0.1 Hepes, 0.01 M CaCl2, pH 7.5 buffer was utilized for trypsin, plasmin, and coagulation enzymes. A 50 mM Tris.HCl, 2 mM EDTA, 5 mM cysteine, pH 7.5 was used as a buffer for papain. A 88 mM KH2 PO4, 12 mM Na2 HPO4, 1.33 mM EDTA, 2.7 mM cysteine, pH 6.0 solution was used as a buffer for cathepsin B. A 20 mM Hepes, 10 mM CaCl2, 10 mM mercatoethanol, pH 7.2 buffer was utilized for calpain I and calpain II.

[2] = molecular target: T1, Calpain I from human erythrocytes (Homo sapiens, UniProt P07384); experiment: Calpain I inhibition, Suc-Leu-Tyr-AMC hydrolysis (KI); details: for Ki: read-out: KI Cal I
T1 construct: Calpain I was purified from human erythrocytes; from tissue; host or cells: human erythrocytes
T1 sequence (P07384 1-714): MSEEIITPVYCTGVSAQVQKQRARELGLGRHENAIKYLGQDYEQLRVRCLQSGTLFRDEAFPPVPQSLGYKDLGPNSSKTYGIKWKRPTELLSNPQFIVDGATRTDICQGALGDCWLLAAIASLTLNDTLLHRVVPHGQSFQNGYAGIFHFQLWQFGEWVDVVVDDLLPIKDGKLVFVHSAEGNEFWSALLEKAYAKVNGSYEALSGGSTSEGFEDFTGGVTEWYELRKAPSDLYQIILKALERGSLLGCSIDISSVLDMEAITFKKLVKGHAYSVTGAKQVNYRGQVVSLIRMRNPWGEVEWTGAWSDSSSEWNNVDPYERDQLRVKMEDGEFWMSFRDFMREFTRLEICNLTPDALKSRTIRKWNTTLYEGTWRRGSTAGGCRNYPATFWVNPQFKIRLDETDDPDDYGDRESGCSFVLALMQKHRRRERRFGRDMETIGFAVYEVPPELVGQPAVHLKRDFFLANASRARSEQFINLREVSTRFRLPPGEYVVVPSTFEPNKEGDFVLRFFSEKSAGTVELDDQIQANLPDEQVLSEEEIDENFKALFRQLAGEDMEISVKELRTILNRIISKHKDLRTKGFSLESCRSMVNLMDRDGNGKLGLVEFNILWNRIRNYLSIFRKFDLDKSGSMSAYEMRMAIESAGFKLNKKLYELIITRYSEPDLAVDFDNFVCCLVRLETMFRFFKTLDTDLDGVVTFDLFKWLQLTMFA
T1 sequence (P04632 1-268 partner): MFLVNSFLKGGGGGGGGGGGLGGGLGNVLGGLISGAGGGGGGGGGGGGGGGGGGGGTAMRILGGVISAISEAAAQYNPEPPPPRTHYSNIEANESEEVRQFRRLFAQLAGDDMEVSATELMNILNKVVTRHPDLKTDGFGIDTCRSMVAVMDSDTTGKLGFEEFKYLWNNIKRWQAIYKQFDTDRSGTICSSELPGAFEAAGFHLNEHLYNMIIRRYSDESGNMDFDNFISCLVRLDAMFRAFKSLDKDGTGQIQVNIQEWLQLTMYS
Experimental: as §1, §2, §3, §4

[3] = molecular target: T2, human leukocyte elastase (HLE) (Homo sapiens, UniProt P08246); experiment: HLE inhibition, MeO-Suc-Ala-Ala-Pro-Val-NA hydrolysis; details: Table 4, Z-Leu--AA--CONH-R
T2 sequence (P08246 30-267): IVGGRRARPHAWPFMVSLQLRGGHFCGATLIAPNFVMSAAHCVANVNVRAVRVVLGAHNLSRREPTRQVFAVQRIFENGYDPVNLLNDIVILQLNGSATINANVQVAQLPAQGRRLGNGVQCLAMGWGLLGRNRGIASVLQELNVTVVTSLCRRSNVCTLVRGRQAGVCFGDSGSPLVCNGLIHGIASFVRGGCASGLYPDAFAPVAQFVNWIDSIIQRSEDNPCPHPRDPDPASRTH
Experimental: as §2, §4
HLE and PPE were assayed with MeO-Suc-Ala-Ala-Pro-Val-NA and Suc-Ala-Ala-Ala-NA, respectively Nakajima et al., J. Biol. Chem. 254, 4027-4032 (1979); incorporated herein by reference!. Human leukocyte cathepsin G and chymotrypsin Aα were assayed with Suc-Val-Pro-Phe-NA Tanaka et al., Biochemistry 24, 2040-2047 (1985); incorporated herein by reference!. The hydrolysis of peptide 4-nitroanilides was measured at 410 nm ε410 =8800 M^-1 cm^-1; Erlanger et al., Arch. Biochem. Biophys. 95, pp 271-278 (1961); incorporated herein by reference!. Trypsin, thrombin, human plasma kallikrein, porcine pancreatic kallikrein, human factor XIa, and human plasmin were assayed with Z-Arg-SBzl or Z-Gly-Arg-SBu-i McRae et al., Biochemistry 20, 7196-7206 (1981); incorporated herein by reference!. All peptide thioester hydrolysis rates were measured with assay mixtures containing 4,4'-dithiodipyridine ε324 =19800 M^-1 cm^-1; Grasetti & Murray, Arch. Biochem. Biophys. 119, 41-49 (1967); incorporated herein by reference!.

[4] = molecular target: T3, cathepsin B (Homo sapiens, UniProt P07858); experiment: Cathepsin B inhibition (KI); details: Table 1, Z-Leu--AA--CONHR; read-out: KI Cat B
T3 construct: purchased Sigma
Experimental: as §1, §2, §3, §4

[5] = Table 2, Z-Leu--AA--CONH--CH2 CH(OH)-R

Molecule | Ki ([2]; Table 1, Z-Leu--AA--CONHR) | IC50 [3] | Ki [2, 5] | further results
CCC(NC(=O)C(CC(C)C)NC(=O)C(c1ccccc1)c1ccccc1)C(=O)C(=O)NCc1ccccn1 (stereo not drawn) [Ph2 CH-CO-Leu-Abu-CONH-CH2 -2-pyridyl, Ph2 CHCO-Leu-Abu-CONH-2-CH2 -Pyridyl] |  |  |  | Ki ([1]; Table 3, M1 CO-Leu--AA--CONH-R): 90 nM
CC(C)CC(NC(=O)C(c1ccccc1)c1ccccc1)C(=O)NC(Cc1ccccc1)C(=O)C(=O)NCC(O)c1ccccc1 (stereo not drawn) [Ph2 CH-CO-Leu-Phe-CONH-CH2 CH(OH)Ph, Ph2 CHCO-Leu-Phe-CONH--CH2 CH(OH)Ph] |  |  |  | Ki ([1]; Table 3, M1 CO-Leu--AA--CONH-R): 730 nM; Ki ([2]; Table 3, M1 CO-Leu--AA--CONH-R): 10000 nM
CCC(NC(=O)C(CC(C)C)NC(=O)OCc1ccccc1)C(=O)C(=O)NCCc1ccccn1 (stereo not drawn) [Z-Leu-Abu-CONH-(CH2)2 -2-pyridyl, Z-Leu-Abu-CONH--(CH2)2 -2-Pyridyl] | 410 nM |  |  | Ki ([1]; Table 1, Z-Leu--AA--CONHR): 470 nM
CCC(NC(=O)C(CC(C)C)NC(=O)OCc1ccccc1)C(=O)C(=O)NCCc1c[nH]c2ccccc12 (stereo not drawn) [Z-Leu-Abu-CONH-(CH2)2 -3-indolyl, Z-Leu-Abu-CONH--(CH2)2 -3-Indolyl] | 300 nM | 48000 nM |  | Ki ([1]; Table 1, Z-Leu--AA--CONHR): 50 nM
CC[C@H](NC(=O)[C@H](CC(C)C)NC(=O)OCc1ccccc1)C(=O)C(=O)NCCc1ccccc1OC [Z-Leu-Abu-CONH-(CH2)2 C6 H4 (2-OCH3), Z-Leu-Abu-CONH--(CH2)2 C6 H4 (2-OCH3)] | 130 nM |  |  | Ki [4]: 630 nM
CC[C@H](NC(=O)[C@H](CC(C)C)NC(=O)OCc1ccccc1)C(=O)C(=O)NCCOCCO [Z-Leu-Abu-CONH-(CH2)2 O(CH2)2 OH, Z-Leu-Abu-CONH--(CH2)2 O(CH2)2 OH] |  |  |  | Ki [4]: 2000 nM
CCC(NC(=O)C(CC(C)C)NC(=O)OCc1ccccc1)C(=O)C(=O)NCC(O)c1ccc(OCc2ccccc2)c(OCc2ccccc2)c1 (stereo not drawn) [Z-Leu-Abu-CONH--CH2 CH(OH)C6 H3 (3,4-(OCH2 Ph)2)] |  | 64000 nM | 230 nM | 
CCC(NC(=O)C(CC(C)C)NC(=O)OCc1ccccc1)C(=O)C(=O)NCC(O)c1cccc(Oc2cccc(C(F)(F)F)c2)c1 (stereo not drawn) [Z-Leu-Abu-CONH--CH2 CH(OH)C6 H4 -3-OC6 H4 (3-CF3)] |  | 30000 nM | 70 nM | 
CCC(NC(=O)C(CC(C)C)NC(=O)OCc1ccccc1)C(=O)C(=O)NCc1nc2c(c(=O)n(C)c(=O)n2C)n1C (stereo not drawn) [Z-Leu-Abu-CONH-CH2 -8-caffeine, Z-Leu-Abu-CONH--CH2 -8-Caffeine] | 32000 nM | 156000 nM |  | 
CCC(NC(=O)C(CC(C)C)NC(=O)OCc1ccccc1)C(=O)C(=O)NCC(O)c1cccc(Oc2ccccc2)c1 (stereo not drawn) [Z-Leu-Abu-CONH-CH2 CH(OH)-C6 H4 (3-OPh), Z-Leu-Abu-CONH--CH2 CH(OH)C6 H4 (3-OPh)] |  | 45000 nM | 900 nM | 
CCC(NC(=O)C(CC(C)C)NC(=O)OCc1ccccc1)C(=O)C(=O)NCC(O)c1ccc(OC)cc1 (stereo not drawn) [Z-Leu-Abu-CONH-CH2 CH(OH)-C6 H4 (4-OCH3), Z-Leu-Abu-CONH--CH2 CH(OH)C6 H4 (4-OCH3)] |  | 32000 nM | 240 nM | 
CCCC(NC(=O)C(CC(C)C)NC(=O)OCc1ccccc1)C(=O)C(=O)NCc1ccccn1 (stereo not drawn) [Z-Leu-Nva-CONH-CH2 -2-pyridyl, Z-Leu-Nva-CONH--CH2 -2-Pyridyl] | 19 nM |  |  | Ki ([1]; Table 1, Z-Leu--AA--CONHR): 120 nM; inhibition of calpain I, in words [2]: best inhibitor of calpain I
Z-Leu-Abu-CONH--CH2 CH(OH)C6 F5 [Z-Leu-Abu-CONH-CH2 CH(OH)-C6 F5] |  | 44000 nM | 50 nM | inhibition of calpain I, in words [2]: best inhibitor for calpain I

Continued, in another order:

Ki ([2]; Table 1, Z-Leu--AA--CONHR) | IC50 [3] | Ki [2, 5] | Molecule | further results
1000 nM |  |  | CCC(NC(=O)[C@H](CC(C)C)NC(=O)OCc1ccccc1)C(=O)C(=O)NCCN1CCOCC1 (stereo partly drawn) [Z-Leu-Abu-CONH-(CH2)2 -4-morpholinyl, Z-Leu-Abu-CONH--(CH2)2 -4-Morpholinyl] | Ki [4]: 2500 nM
650 nM | 38000 nM |  | CCC(NC(=O)C(CC(C)C)NC(=O)OCc1ccccc1)C(=O)C(=O)NCCNC(=O)CCCCC1SCC2NC(=O)NC21 (stereo not drawn) [Z-Leu-Abu-CONH-(CH2)2 NH-biotinyl, Z-Leu-Abu-CONH--(CH2)2NH-Biotinyl] | 
800 nM |  |  | CCC(NC(=O)C(CC(C)C)NC(=O)OCc1ccccc1)C(=O)C(=O)NCCO (stereo not drawn) [Z-Leu-Abu-CONH-(CH2)2 OH, Z-Leu-Abu-CONH--(CH2)2 OH] | Ki [4]: 4500 nM
310 nM |  |  | CCC(NC(=O)C(CC(C)C)NC(=O)OCc1ccccc1)C(=O)C(=O)NCCCN1CCc2ccccc2C1 (stereo not drawn) [Z-Leu-Abu-CONH--(CH2)3 -2-Tetrahydroisoquinolinyl] | Ki [4]: 8000 nM
 | 28000 nM | 100 nM | CCC(NC(=O)C(CC(C)C)NC(=O)OCc1ccccc1)C(=O)C(=O)NCC(O)c1ccc(Oc2ccccc2)cc1 (stereo not drawn) [Z-Leu-Abu-CONH-CH2 CH(OH)-C6 H4 (4-OPh), Z-Leu-Abu-CONH--CH2 CH(OH)C6 H4 (4-OPh)] | 
 |  | 7800 nM | CCCC(NC(=O)C(CC(C)C)NC(=O)OCc1ccccc1)C(=O)C(=O)NCC(O)c1ccccc1 (stereo not drawn) [Z-Leu-Nva-CONH-CH2 CH(OH)-Ph, Z-Leu-Nva-CONH--CH2 CH(OH)Ph] | Ki [1, 5]: 11000 nM
380 nM |  |  | Z-Leu-Abu-CONH--(CH2)2 C6 H4 (4-OH) [Z-Leu-Abu-CONH-(CH2)2 C6 H4 (4-OH)] | Ki ([1]; Table 1, Z-Leu--AA--CONHR): 60 nM
